Results reported in PubChem BioAssay AID256 (DTP/NCI, 2004).
Values joined by “and” are separate entries in the source; they are usually repeats but may differ in a detail not shown here. Identical values can stand only once. Toxic doses and inconclusive results are not listed. Rule for the calls: active = survival T/C of 150% or more; inactive = T/C below 125% in these data.

Test system: CD2F1 mice, L1210 leukemia ip, survival T/C
Experiment: NCI In Vivo Anticancer Drug Screen. Data for tumor model L1210 Leukemia (intraperitoneal) in CD2F1 (CDF1) mice
Settings: higher = longer survival
Procedure, shortened: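 Implant tumor; dose compound or vehicle; measure endpoint in both groups; report treated divided by control.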

[1] = endpoint: mean survival time, dose: 100.0 mg/kg/injection, schedule: Q04DX003 (ip), vehicle: saline
[2] = endpoint: mean survival time, dose: 50.0 mg/kg/injection, schedule: Q01DX009 (ip), vehicle: saline with Tween-80
[3] = endpoint: mean survival time, dose: 100.0 mg/kg/injection, schedule: Q01DX009 (ip), vehicle: saline with Tween-80
[4] = endpoint: mean survival time, dose: 50.0 mg/kg/injection, schedule: Q01DX009 (ip), vehicle: Klucel (hydroxypropylcellulose) (HPC)
[5] = endpoint: mean survival time, dose: 200.0 mg/kg/injection, schedule: Q01DX009 (ip), vehicle: saline with Tween-80
[6] = endpoint: mean survival time, dose: 100.0 mg/kg/injection, schedule: Q04DX003 (ip), vehicle: saline with Tween-80
[7] = endpoint: mean survival time, dose: 200.0 mg/kg/injection, schedule: Q04DX003 (ip), vehicle: saline with Tween-80
[8] = endpoint: mean survival time, dose: 400.0 mg/kg/injection, schedule: Q04DX003 (ip), vehicle: saline with Tween-80
[9] = endpoint: mean survival time, dose: 25.0 mg/kg/injection, schedule: Q01DX009 (ip), vehicle: saline with Tween-80

Measured: T/C

C=C1CC2(CCC23COC(=O)C3=C)OC1=O (stereo unspecified)
inactive: endpoint: mean survival time, dose: 0.78 mg/kg/injection, schedule: Q01DX009 (ip), vehicle: other 107 % of control | endpoint: mean survival time, dose: 0.78 mg/kg/injection, schedule: Q04DX002 (ip), vehicle: other 100 % of control | endpoint: mean survival time, dose: 0.78 mg/kg/injection, schedule: Q04DX003 (ip), vehicle: other 100 % of control | endpoint: mean survival time, dose: 1.56 mg/kg/injection, schedule: Q01DX009 (ip), vehicle: other 102 % of control | endpoint: mean survival time, dose: 1.56 mg/kg/injection, schedule: Q04DX002 (ip), vehicle: other 105 % of control | endpoint: mean survival time, dose: 1.56 mg/kg/injection, schedule: Q04DX003 (ip), vehicle: other 108 % of control | endpoint: mean survival time, dose: 3.12 mg/kg/injection, schedule: Q01DX009 (ip), vehicle: other 95 % of control | endpoint: mean survival time, dose: 3.12 mg/kg/injection, schedule: Q04DX002 (ip), vehicle: other 105 % of control | endpoint: mean survival time, dose: 3.12 mg/kg/injection, schedule: Q04DX003 (ip), vehicle: other 102 % of control | endpoint: mean survival time, dose: 6.25 mg/kg/injection, schedule: Q01DX009 (ip), vehicle: other 107 % of control | endpoint: mean survival time, dose: 6.25 mg/kg/injection, schedule: Q04DX002 (ip), vehicle: other 109 % of control | endpoint: mean survival time, dose: 6.25 mg/kg/injection, schedule: Q04DX003 (ip), vehicle: other 105 % of control | endpoint: mean survival time, dose: 12.5 mg/kg/injection, schedule: Q01DX001 (ip), vehicle: other 107 % of control

C=CCN(CC=C)CC=C
inactive: [1] 95 % of control | endpoint: mean survival time, dose: 200.0 mg/kg/injection, schedule: Q04DX003 (ip), vehicle: saline 97 % of control | endpoint: mean survival time, dose: 400.0 mg/kg/injection, schedule: Q04DX003 (ip), vehicle: saline 93 % of control

CN(C)N=Nc1ccccc1C(=O)NCC#N
inactive: endpoint: mean survival time, dose: 18.75 mg/kg/injection, schedule: Q01DX009 (ip), vehicle: Klucel (hydroxypropylcellulose) (HPC) 100 % of control and 103 % of control | endpoint: mean survival time, dose: 37.5 mg/kg/injection, schedule: Q01DX009 (ip), vehicle: Klucel (hydroxypropylcellulose) (HPC) 106 % of control and 107 % of control | endpoint: mean survival time, dose: 75.0 mg/kg/injection, schedule: Q01DX009 (ip), vehicle: Klucel (hydroxypropylcellulose) (HPC) 112 % of control | endpoint: mean survival time, dose: 150.0 mg/kg/injection, schedule: Q01DX009 (ip), vehicle: Klucel (hydroxypropylcellulose) (HPC) 91 % of control

NC(=O)NN=C1CCC1
inactive: endpoint: mean survival time, dose: 75.0 mg/kg/injection, schedule: Q01DX001 (ip), vehicle: saline 98 % of control

NCc1ccc([N+](=O)[O-])cc1Cl
inactive: [2] 94 % of control | [3] 94 % of control

C/C(=N/NC(=O)c1ccccc1)c1ccc(Cl)cc1Cl
inactive: [4] 89 % of control

NC(=O)Cc1ccccc1[N+](=O)[O-]
inactive: endpoint: mean survival time, dose: 50.0 mg/kg/injection, schedule: Q01DX001 (ip), vehicle: saline with Tween-80 95 % of control | endpoint: mean survival time, dose: 100.0 mg/kg/injection, schedule: Q01DX001 (ip), vehicle: saline with Tween-80 104 % of control | endpoint: mean survival time, dose: 200.0 mg/kg/injection, schedule: Q01DX001 (ip), vehicle: saline with Tween-80 106 % of control

O=CC(O)CO (stereo unspecified)
inactive: endpoint: median survival time, dose: 129.6 mg/kg/injection, schedule: Q ##X015 (sc), vehicle: saline 109 % of control | endpoint: median survival time, dose: 129.6 mg/kg/injection, schedule: Q## X015 (sc), vehicle: saline 112 % of control | endpoint: median survival time, dose: 216.0 mg/kg/injection, schedule: Q ##X015 (sc), vehicle: saline 108 % of control | endpoint: median survival time, dose: 216.0 mg/kg/injection, schedule: Q## X015 (sc), vehicle: saline 112 % of control | endpoint: median survival time, dose: 360.0 mg/kg/injection, schedule: Q ##X015 (sc), vehicle: saline 119 % of control | endpoint: median survival time, dose: 360.0 mg/kg/injection, schedule: Q## X015 (sc), vehicle: saline 118 % of control | endpoint: median survival time, dose: 600.0 mg/kg/injection, schedule: Q ##X015 (sc), vehicle: saline 110 % of control | endpoint: median survival time, dose: 600.0 mg/kg/injection, schedule: Q## X015 (sc), vehicle: saline 112 % of control

CCOC(=O)c1c(C)oc2cc3c(C(=O)OCC)c(C)oc3cc12
inactive: endpoint: mean survival time, dose: 100.0 mg/kg/injection, schedule: Q01DX001 (ip), vehicle: Klucel (hydroxypropylcellulose) (HPC) 90 % of control | endpoint: mean survival time, dose: 200.0 mg/kg/injection, schedule: Q01DX001 (ip), vehicle: Klucel (hydroxypropylcellulose) (HPC) 95 % of control | endpoint: mean survival time, dose: 400.0 mg/kg/injection, schedule: Q01DX001 (ip), vehicle: Klucel (hydroxypropylcellulose) (HPC) 93 % of control

Cn1c(=O)[nH]c2c(nc(-c3ccc(Cl)cc3)n2C)c1=O
inactive: endpoint: mean survival time, dose: 12.5 mg/kg/injection, schedule: Q01DX005 (ip), vehicle: other 91 % of control | endpoint: mean survival time, dose: 25.0 mg/kg/injection, schedule: Q01DX005 (ip), vehicle: other 100 % of control | endpoint: mean survival time, dose: 50.0 mg/kg/injection, schedule: Q01DX005 (ip), vehicle: other 95 % of control | endpoint: mean survival time, dose: 100.0 mg/kg/injection, schedule: Q01DX005 (ip), vehicle: other 95 % of control | endpoint: mean survival time, dose: 200.0 mg/kg/injection, schedule: Q01DX005 (ip), vehicle: other 100 % of control

CCCCOC(N)=O
inactive: [3] 100 % of control | [5] 105 % of control | endpoint: mean survival time, dose: 400.0 mg/kg/injection, schedule: Q01DX009 (ip), vehicle: saline with Tween-80 97 % of control

Cc1nc(=O)cnn1C1OC(CO)C(O)C1O (stereo unspecified)
inactive: endpoint: mean survival time, dose: 12.5 mg/kg/injection, schedule: Q01DX005 (ip), vehicle: distilled water + Tween-80 102 % of control | endpoint: mean survival time, dose: 25.0 mg/kg/injection, schedule: Q01DX005 (ip), vehicle: distilled water + Tween-80 102 % of control | endpoint: mean survival time, dose: 50.0 mg/kg/injection, schedule: Q01DX005 (ip), vehicle: distilled water + Tween-80 97 % of control | endpoint: mean survival time, dose: 100.0 mg/kg/injection, schedule: Q01DX005 (ip), vehicle: distilled water + Tween-80 103 % of control | endpoint: mean survival time, dose: 200.0 mg/kg/injection, schedule: Q01DX005 (ip), vehicle: distilled water + Tween-80 105 % of control

CCN(CC)CCN=Cc1c(O)c(O)c(C(C)C)c2cc(C)c(-c3c(C)cc4c(C(C)C)c(O)c(O)c(C=NCCN(CC)CC)c4c3O)c(O)c12
inactive: endpoint: mean survival time, dose: 100.0 mg/kg/injection, schedule: Q01DX001 (ip), vehicle: saline 90 % of control | endpoint: mean survival time, dose: 200.0 mg/kg/injection, schedule: Q01DX001 (ip), vehicle: saline 90 % of control | endpoint: mean survival time, dose: 400.0 mg/kg/injection, schedule: Q01DX001 (ip), vehicle: saline 93 % of control

Cc1ccc(NC(=O)COc2ccc(Cl)cc2Cl)cc1Cl
inactive: [6] 93 % of control | [7] 98 % of control | [8] 88 % of control

C[n+]1c(-c2cc(C(F)(F)F)cc(C(F)(F)F)c2)c2cc(N)ccc2c2ccc(N)cc21
inactive: endpoint: mean survival time, dose: 6.25 mg/kg/injection, schedule: Q01DX005 (ip), vehicle: saline with Tween-80 106 % of control | endpoint: mean survival time, dose: 12.5 mg/kg/injection, schedule: Q01DX005 (ip), vehicle: saline with Tween-80 101 % of control | endpoint: mean survival time, dose: 25.0 mg/kg/injection, schedule: Q01DX005 (ip), vehicle: saline with Tween-80 106 % of control | endpoint: mean survival time, dose: 50.0 mg/kg/injection, schedule: Q01DX005 (ip), vehicle: saline with Tween-80 111 % of control | endpoint: mean survival time, dose: 100.0 mg/kg/injection, schedule: Q01DX005 (ip), vehicle: saline with Tween-80 116 % of control

CC(O)C(NC(=O)OC(C)(C)C)C(=O)ON1C(=O)CCC1=O (stereo unspecified)
inactive: [9] 92 % of control | [2] 94 % of control | [3] 96 % of control and 98 % of control

CC([NH-])C([NH-])O.[I][Pt+2][I] (stereo unspecified)
inactive: endpoint: mean survival time, dose: 6.25 mg/kg/injection, schedule: Q04DX003 (ip), vehicle: saline with Tween-80 97 % of control | endpoint: mean survival time, dose: 12.5 mg/kg/injection, schedule: Q04DX003 (ip), vehicle: saline with Tween-80 115 % of control | endpoint: mean survival time, dose: 25.0 mg/kg/injection, schedule: Q04DX003 (ip), vehicle: saline with Tween-80 121 % of control

COc1cc(OC)c(NC(=O)Nc2c(C)n(C)n(-c3ccccc3)c2=O)cc1Cl
inactive: endpoint: mean survival time, dose: 12.5 mg/kg/injection, schedule: Q01DX009 (ip), vehicle: saline with Tween-80 91 % of control | [9] 97 % of control | [2] 93 % of control and 97 % of control | [5] 89 % of control

CCN(CC)Cc1ccccn1
inactive: endpoint: mean survival time, dose: 25.0 mg/kg/injection, schedule: Q01DX009 (ip), vehicle: saline 94 % of control | endpoint: mean survival time, dose: 50.0 mg/kg/injection, schedule: Q01DX009 (ip), vehicle: saline 97 % of control | endpoint: mean survival time, dose: 100.0 mg/kg/injection, schedule: Q01DX009 (ip), vehicle: saline 92 % of control | [1] 95 % of control

O=C(/C=C/c1ccc(Cl)cc1)/C=C/c1ccc(Cl)cc1
inactive: [4] 94 % of control | endpoint: mean survival time, dose: 100.0 mg/kg/injection, schedule: Q01DX009 (ip), vehicle: Klucel (hydroxypropylcellulose) (HPC) 98 % of control | endpoint: mean survival time, dose: 200.0 mg/kg/injection, schedule: Q01DX009 (ip), vehicle: Klucel (hydroxypropylcellulose) (HPC) 94 % of control

CC1=CCC(C(C)(C)c2ccc(O)cc2)CC1 (stereo unspecified)
inactive: [9] 94 % of control | [2] 110 % of control | [3] 98 % of control | [6] 90 % of control | [5] 96 % of control | [7] 104 % of control | [8] 90 % of control
